The values below come from publication PMC5404848 (Cell Chemical Biology, 2017).

Data set [1] has as its system HCT116 p53^wt cells. Put plainly: Western blot analysis of protein expression. The data set is classed as cell-based, Human. Particulars: for expression of p27: 5 or 20 μM, 48 hr, HCT116 cells (Figures 2A and S3A); for expression of proteins encoded by p53-target genes (MDM2 and p21) and of p53: 24 or 48 hr. In general terms: In western blotting, separated proteins are transferred to a membrane and probed.

The test system of data set [2] is HCT116 p53^wt cells. Nature of the data set: MTT assay (cell viability), 6 days treatment. Type of data set: cell-based, Human. The settings on record: for growth-inhibitory (GI) properties: cell-based assay (discussion); for LD50 (concentration killing 50% of cells): Homo sapiens, HCT-116, 144 h, read-out: LD50. The protocol:
(§1) To test the biological activity of the compounds, we performed MTT (3-(4,5-dimethylthiazol-2-yl)-2,5-diphenyltetrazolium bromide) and lactate dehydrogenase (LDH) release assays. […] To track not only the toxic (lethal) but also growth-inhibitory (GI) effect in the MTT assay, we treated the cells for 6 days.
(§2) For MTT assay, the cells were seeded on 96-well transparent plates and treated the next day with the compounds or DMSO for 6 days. Thiazolyl Blue Tetrazolium Bromide (MTT, Sigma Aldrich) was added for 60 minutes to a final concentration of […]. The medium was removed and MTT crystals were dissolved in isopropanol supplemented with 40 mM HCl. The absorbance was measured with Infinite 200 microplate reader (Tecan Group Ltd.) at 570 nm with the reference wavelength 650 nm for background subtraction.

Data set [3] concerns HCT116 p53^wt cells. Nature of the data set: Western blot analysis of protein expression. The data set is classed as cell-based, Human. The settings on record: 5 or 20 μM, 48 hr. An excerpt: (§3) The progression from G1 to S phase relies largely on the expression and activity of D cyclins. To verify whether the observed impairment in cell-cycle progression following LCAHA treatment is associated with D cyclins, we investigated the expression of cyclins D1 and D3 in HCT116 p53^wt and HCT116 p53^−/− cells.

Data set [4] concerns HCT116 p53^−/− cells. Nature of the data set: Western blot analysis of protein expression. The data set is classed as cell-based, Human. Particulars: 5 or 20 μM, 48 hr.
Source text: as §3

Data set [5] has as its system HCT116 p53^wt cells. Put plainly: Caspase 3/7 activity (Caspase-Glo 3/7). The data set is classed as cell-based, Human. The settings on record: staurosporine treatment (apoptosis inducer control). The protocol: To evaluate whether the observed effects are accompanied by the induction of apoptosis, we examined the activation of caspases 3 and 7 in HCT116 p53^wt cells.
The cells were plated on the 96-well white, flat bottom plates (Falcon) and treated with DMSO, LCAHA or Staurosporine. For the detection of caspase activity Caspase-Glo 3/7 Assay System was used (Promega) according to the manufacturer’s instructions.

The target of data set [6] is T1, human recombinant USP2a catalytic domain (residues 258-605) (Homo sapiens, UniProt O75604).
T1 sequence (O75604 258-605): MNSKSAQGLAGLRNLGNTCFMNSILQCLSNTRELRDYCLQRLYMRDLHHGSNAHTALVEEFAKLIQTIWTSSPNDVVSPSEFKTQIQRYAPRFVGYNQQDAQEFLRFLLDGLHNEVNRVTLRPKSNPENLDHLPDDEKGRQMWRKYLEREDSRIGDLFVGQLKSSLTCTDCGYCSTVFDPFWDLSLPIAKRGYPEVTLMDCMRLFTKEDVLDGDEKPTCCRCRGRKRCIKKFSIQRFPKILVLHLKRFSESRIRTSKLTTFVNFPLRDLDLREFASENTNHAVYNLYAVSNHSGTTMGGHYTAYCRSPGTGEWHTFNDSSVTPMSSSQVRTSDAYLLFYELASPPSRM
Nature of the data set: Ub-AMC hydrolysis assay. Particulars: 30 min pre-incubation; for IC50: read-out: IC50, USP2a activity, Ub-AMC Assay.
Experimental: (§4) The assays were performed using Infinite 200 PRO – Tecan plate reader and 96-well, black Greiner microplates in a 100 μl reaction volume.
Ub-AMC-hydrolysis assay was performed in a reaction buffer (50 mM Tris/HCl, pH=7.5, 1 mM EDTA, 1 mM MgCl2).
(§5) All assays were performed simultaneously in triplicate and results are presented as mean values ± SD.

The target in data set [7] is T1, human recombinant USP2a catalytic domain (residues 258-605). Nature of the data set: Di-Ub K63-2 hydrolysis (FRET) assay. The settings on record: read-out: IC50, USP2a activity, Di-Ub Assay; Di-Ub K63-2, 30 min pre-incubation.
Experimental: as §4
Di-Ub K63-2 hydrolysis assay was performed in 50 mM Tris/HCl pH=7.5, 1mM DTT. USP2a (20 nM) was preincubated with an excess of tested compound for 30 min. Fluorescence changes were recorded at excitation and emission wavelengths of 540 nm and 580 nm respectively, immediately after Di-Ub (200 nM, LifeSensors) addition.
as §5
The test system of data set [8] is HCT116 p53^−/− cells. Nature of the data set: MTT assay (cell viability), 6 days treatment. Type of data set: cell-based, Human. The method, then: as §1, §2
A short description of data set [9]: Solubility problems in cell line experiment or enzymatic assay. Type of data set: physicochemical. Particulars: in either the cell line experiment or the enzymatic assay.
For another data set, the target named is T2, USP7 (Homo sapiens, UniProt Q93009).
T2 construct: Human USP7 catalytic domain (residues 208-561) was cloned into the pGEX-6P-1 vector; GST (N, cleaved yes); made in house; host or cells: E. coli BL21 (DE3)
Put plainly: Ub-AMC assay, USP7 selectivity. The data set is classed as biochemical. Particulars: 10 μM.

The next data set concerns USP2a. More on the design: method as in Nicholson et al., 2008. The settings on record: ref Nicholson et al., 2008; read-out: EC50 (previously reported); cited from earlier work.
The mark [10] stands for this setting: Homo sapiens, HCT-116, 144 h, read-out: LD50.

Molecules are shown by their SMILES. Like-named read-outs stand apart in the source and are kept apart here.

T2 sequence (Q93009 208-561): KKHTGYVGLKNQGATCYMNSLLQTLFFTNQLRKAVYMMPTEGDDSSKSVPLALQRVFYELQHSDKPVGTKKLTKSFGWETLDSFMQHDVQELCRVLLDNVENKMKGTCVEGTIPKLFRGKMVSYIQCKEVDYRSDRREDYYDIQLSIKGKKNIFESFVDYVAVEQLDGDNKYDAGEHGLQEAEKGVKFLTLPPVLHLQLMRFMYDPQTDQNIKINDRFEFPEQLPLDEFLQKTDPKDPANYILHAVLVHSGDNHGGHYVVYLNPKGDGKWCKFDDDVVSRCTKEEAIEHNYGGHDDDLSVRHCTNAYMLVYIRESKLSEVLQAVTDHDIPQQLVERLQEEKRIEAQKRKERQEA
Experimental for USP7: Cells were grown in LB medium containing 100 μg/ml ampicillin at 37 °C and induced with 0.5 mM IPTG at OD600 of 0.7-0.9 and cultured overnight at 16 °C. Cells were harvested by centrifugation. Next cells were resuspended in buffer A (50 mM Tris/HCl pH 9.0, 50 mM NaCl, 3 mM β-mercapthoetanol) and disrupted by sonication. Cell lysate were clarified by centrifugation (45 000 g, 40 min.) and dialyzed against buffer A. Supernatant was loaded onto Q-Sepharose column and proteins were eluted with NaCl gradient. Fractions containing GST fused USP7 were combined, concentrated and dialyzed against buffer (50 mM Tris/HCl pH 7.0, 50 mM NaCl, 3 mM β-mercapthoetanol). During dialysis protein was digested with PreScission Protease (GE Healthcare). USP7 protein and cleaved GST were separated on Mono Q HR 10/10 column (GE Healthcare). The last purification step consisted of size exclusion chromatography on HiLoad 16/60 Superdex 75 prep grade (GE Healthcare) in 50 mM Tris/HCl, 150 mM NaCl, 2 mM DTT.

Take `CC(=O)O[C@@H]1CC[C@@]2(C)[C@H](CC[C@@H]3[C@@H]2CC[C@]2(C)[C@@H]([C@H](C)CCC(=O)O)CC[C@@H]32)C1` [LCAE, 3-Acetoxy-Lithocholic Acid]: in the data set with HCT116 p53^wt cells [1], the “expression of p27” value is on record as “not altered”; the “expression of proteins encoded by p53-target genes (MDM2 and p21) and of p53” value was “did not induce”. Besides, the “growth-inhibitory (GI) properties” value in the data set on HCT116 p53^wt cells [2] is given as “no GI properties”. Also, in the data set on HCT116 p53^wt cells [3], the “cyclin D1 expression” value is “decreased the expression of the protein” and the “cyclin D3 expression” value was “no effect”. Further, the “cyclin D3 expression” value in the data set on HCT116 p53^−/− cells [4] is given as “no effect”.

For `CN[C@@H]1C[C@H]2O[C@@](C)([C@@H]1OC)n1c3ccccc3c3c4c(c5c6ccccc6n2c5c31)C(=O)NC4` [staurosporine, reference compound], the “activity of caspases 3 and 7” value in the data set on HCT116 p53^wt cells [5] is given as “strong increase”.

With `C[C@H](CCC(=O)NCCS(=O)(=O)O)[C@H]1CC[C@H]2[C@@H]3[C@H](O)C[C@@H]4C[C@H](O)CC[C@]4(C)[C@H]3C[C@H](O)[C@]12C` [TCAS, taurocholic acid, reference compound], the “IC50, USP2a activity, Ub-AMC Assay” value in data set [6] is “not active”.

For `C[C@H](CCC(N)=O)[C@H]1CC[C@H]2[C@@H]3CC[C@@H]4C[C@H](O)CC[C@]4(C)[C@H]3CC[C@]12C` [LCANH2, 3-hydroxylithocholanamide], the IC50 in data set [7] came to 16.7 ± 1.3 µM; in data set [6], 27.9 ± 1 µM. Moreover, the LD50 (concentration killing 50% of cells) in the data set with HCT116 p53^wt cells [2] is 24.5 ± 0.9 µM. Besides, the LD50 with HCT116 p53^−/− cells [8] (setting [10]) stood at 41.8 ± 2.7 µM.

Turning to `COC(=O)CC[C@@H](C)[C@H]1CC[C@H]2[C@@H]3CC[C@@H]4C[C@H](O)CC[C@]4(C)[C@H]3CC[C@]12C` [LCAME, Methyl 3-Hydroxylithocholanoate], the IC50 in data set [7] and in data set [6] was more than 50 µM each time. Further, the LD50 amounted to 20.5 ± 1.1 µM in the data set with HCT116 p53^wt cells [2] (HCT116^wt, MTT assay, 6 days) and 35.1 ± 4.8 µM in the data set with HCT116 p53^−/− cells [8] (HCT116 p53^−/−, MTT assay, 6 days).

Turning to `C[C@H](CCC(=O)NCC#N)[C@H]1CC[C@H]2[C@@H]3CC[C@@H]4C[C@H](O)CC[C@]4(C)[C@H]3CC[C@]12C` [LCACN, N-(cyanomethyl)-3-hydroxylithocholanamide], the IC50 in data set [7] is 13.9 ± 2.3 µM; in data set [6] it was 7.4 ± 1.2 µM. In addition, the LD50 (concentration killing 50% of cells) in the data set on HCT116 p53^wt cells [2] worked out at 28 ± 0.7 µM. Also, the LD50 in the data set with HCT116 p53^−/− cells [8] (setting [10]) was determined as 29.9 ± 3.2 µM. For the same molecule, in [9], the solubility entry is “solubility problems”.

With `C[C@H](CCC(=O)O)[C@H]1CC[C@H]2[C@@H]3CC[C@@H]4C[C@H](O)CC[C@]4(C)[C@H]3CC[C@]12C` [LCA, Lithocholic acid, reference compound], in the data set with HCT116 p53^wt cells [1], the “expression of p27” value is listed as “not altered”; the “expression of proteins encoded by p53-target genes (MDM2 and p21) and of p53” value is given as “did not induce”. Also, in data set [7], the IC50 was 32 ± 3.2 µM. In addition, the “growth-inhibitory (GI) properties” value with HCT116 p53^wt cells [2] was “inactive in the inhibition of cell growth”. Also, the “inhibition of USP7 protein activity” value on USP7 is reported as “no inhibition”. In addition, in data set [6], the IC50 came out at 31.1 ± 3.4 µM. Also, in the data set on HCT116 p53^wt cells [3], the “cyclin D1 expression” value is “did not affect” and the “cyclin D3 expression” value is “significantly increased”. In the data set with HCT116 p53^−/− cells [4], the “cyclin D1 expression” value is “did not affect” and the “cyclin D3 expression” value was “significantly increased”.

For `C[C@H](CCC(=O)O)[C@H]1CC[C@H]2[C@@H]3CC[C@@H]4CC(=O)CC[C@]4(C)[C@H]3CC[C@]12C` [LCAK, 3-Oxo-Lithocholic Acid], the IC50 was determined as 33.1 ± 3.2 µM in data set [7] and 32 ± 1.8 µM in data set [6].

As for `C[C@H](CCC(=O)O)[C@H]1CC[C@H]2[C@@H]3[C@@H](O)C[C@@H]4C[C@H](O)CC[C@]4(C)[C@H]3CC[C@]12C` [UDCA, ursodeoxycholic acid, reference compound], the IC50 in data set [7] was more than 100 µM. Further, in data set [6], the “IC50, USP2a activity, Ub-AMC Assay” value was “not active”.

With `Cc1ccc(/C=C2\CNC/C(=C\c3ccc(C)cc3)C2=O)cc1` [NSC 632839, reference compound], the half-inhibitory concentration (IC50) is more than 50 µM in data set [7] and 39.1 ± 6.4 µM in data set [6]. The EC50 with USP2a is 45 ± 4 µM.

As to `C[C@H](CCC(=O)O)[C@H]1CC[C@H]2[C@@H]3[C@H](O)C[C@@H]4C[C@H](O)CC[C@]4(C)[C@H]3C[C@H](O)[C@]12C` [CGG, cholic acid, reference compound], the IC50 in data set [7] is more than 100 µM. In addition, the “IC50, USP2a activity, Ub-AMC Assay” value in data set [6] is listed as “not active”.

On to `C[C@H](CCC(=O)NCC(=O)O)[C@H]1CC[C@H]2[C@@H]3CC[C@@H]4C[C@H](O)CC[C@]4(C)[C@H]3CC[C@]12C` [LCAGLY, N-(3-hydroxylithocholanolyl)glycine], for which the IC50 in data set [7] and in [6] was more than 50 µM each time.

In the case of `C[C@H](CCC(=O)N1CCOCC1)[C@H]1CC[C@H]2[C@@H]3CC[C@@H]4C[C@H](O)CC[C@]4(C)[C@H]3CC[C@]12C` [LCAMR, N-lithocholanolyl Morpholine], the IC50 in [7] and in [6] was more than 100 µM throughout. Besides, the LD50 (concentration killing 50% of cells) in the data set with HCT116 p53^wt cells [2] was 8.2 ± 0.7 µM. Further, the LD50 with HCT116 p53^−/− cells [8] (setting [10]) was 7.9 ± 0.7 µM.

As a reminder, the IC50 is the midpoint of a concentration-inhibition curve. The EC50 is the midpoint of the concentration-response curve.
